Results from article PMC9643456, “Matching amino acids membrane preference profile to improve activity of antimicrobial peptides” (Communications Biology, 2022).
Like-named read-outs stand apart in the source and are kept apart here. Square brackets hold non-standard residues; d marks the D form. Ends that are not written are not given here. Peptide text beside a SMILES is read from it. dBta = N[C@H](Cc1csc2ccccc12)C(=O)O

Test system: human red blood cells
Experiment: Hemolytic activity
Type: cell-based
Procedure: Human red blood cells (Zenbio, North Carolina, USA) and peptides were separately diluted in PBS (blood concentration, 8%). The blood cell and peptide solutions were then mixed in 96-well polyethylene plates (SPL, Gyeonggi-do, Korea) and incubated for 18 h at 37 °C. The final concentration of human red blood cells was 4%, while peptide concentrations were 100 μM, 50 μM, 25 μM, 12.5 μM, 6.25 μM, 3.13 μM, 1.56 μM, and 0.78 μM. After incubation, the plates were centrifuged at 1000 × g for 5 min, and the supernatants were transferred to 96-well polyethylene plates. Hemolysis levels were determined by measuring the absorbance at 540 nm with a SpectraMax plate spectrophotometer (Molecular Devices, California, USA). Control samples were treated with 1% Triton X-100 (for 100% hemolysis) or solution with 0 μM peptide (for 0% hemolysis) and melittin (for positive control). Each experiment was performed in triplicate.

CC[C@@H](C)[C@@H](NC(=O)[C@@H](Cc1c[nH]c2ccccc12)NC(=O)[C@H](NC(=O)[C@@H](CC(C)C)NC(=O)[C@H](N)Cc1c[nH]c2ccccc12)C(C)C)C(=O)N[C@H](Cc1ccc(O)cc1)C(=O)N[C@H](CCCNC(=N)N)C(=O)N[C@H](CCCNC(=N)N)C(=O)N[C@H](CCCNC(=N)N)C(N)=O [WCopW33] (H-[dW][dL][dV][dW][dI][dY][dR][dR][dR]-NH2)
Hemolysis percent, 25 μM (red cells of human, 18 h, 25): 3.49% | Hemolysis percent, 50 μM (red cells of human, 18 h, 50): 6.35% | Hemolysis percent, 100 μM (red cells of human, 18 h): 9.93%

CC[C@@H](C)[C@@H](NC(=O)[C@@H](Cc1c[nH]c2ccccc12)NC(=O)[C@@H](CC(C)C)NC(=O)[C@H](N)CC(C)C)C(=O)N[C@H](C)C(=O)N[C@H](CC(C)C)C(=O)N[C@H](CCCCN)C(=O)N[C@H](CCCCN)C(=O)N[C@H](CCCCN)C(=O)N[C@H](CCCCN)C(N)=O [WCopW12] (H-[dL][dL][dW][dI][dA][dL][dK][dK][dK][dK]-NH2)
Hemolysis percent, 25 μM (red cells of human, 18 h, 25): 0.98% | Hemolysis percent, 50 μM (red cells of human, 18 h, 50): 0.98% | Hemolysis percent, 100 μM (red cells of human, 18 h): 0.98%

CCCCCCCCCC(=O)N[C@@H](Cc1c[nH]c2ccccc12)C(=O)N[C@H](CC(N)=O)C(=O)N[C@@H](CC(=O)O)C(=O)N[C@@H]1C(=O)NCC(=O)N[C@@H](CCCN)C(=O)N[C@@H](CC(=O)O)C(=O)N[C@H](C)C(=O)N[C@@H](CC(=O)O)C(=O)NCC(=O)N[C@H](CO)C(=O)N[C@@H]([C@H](C)CC(=O)O)C(=O)N[C@@H](CC(=O)c2ccccc2N)C(=O)O[C@@H]1C [Daptomycin, reference compound]
Hemolysis percent, 25 μM: 0.01 ±0.02% | Hemolysis percent, 25 μM (red cells of human, 18 h, 25): 0.01% | Hemolysis percent, 50 μM (red cells of human, 18 h, 50): 0.03% | Hemolysis percent, 100 μM (red cells of human, 18 h): 0.04 ±0.02%

CC[C@@H](C)[C@@H](NC(=O)[C@@H](Cc1c[nH]c2ccccc12)NC(=O)[C@H](NC(=O)[C@@H](CC(C)C)NC(=O)[C@H](N)Cc1c[nH]c2ccccc12)C(C)C)C(=O)N[C@H](Cc1c[nH]c2ccccc12)C(=O)N[C@H](CCCNC(=N)N)C(=O)N[C@H](CCCNC(=N)N)C(=O)N[C@H](CCC(=O)O)C(=O)N[C@H](CCC(N)=O)C(N)=O [WCopW34] (H-[dW][dL][dV][dW][dI][dW][dR][dR][dE][dQ]-NH2)
Hemolysis percent, 25 μM (red cells of human, 18 h, 25): -0.18% | Hemolysis percent, 50 μM (red cells of human, 18 h, 50): -0.17% | Hemolysis percent, 100 μM (red cells of human, 18 h): -0.14%

CC[C@@H](C)[C@@H](NC(=O)[C@@H](Cc1c[nH]c2ccccc12)NC(=O)[C@@H](CC(C)C)NC(=O)[C@@H](CC(C)C)NC(=O)[C@H](N)Cc1c[nH]c2ccccc12)C(=O)N[C@H](C)C(=O)N[C@H](CC(C)C)C(=O)N[C@H](CCCNC(=N)N)C(=O)N[C@H](CCCCN)C(=O)N[C@H](CCCCN)C(=O)N[C@H](CCCNC(=N)N)C(N)=O [WCopW4] (H-[dW][dL][dL][dW][dI][dA][dL][dR][dK][dK][dR]-NH2)
Hemolysis percent, 25 μM (red cells of human, 18 h, 25): 5.94% | Hemolysis percent, 50 μM (red cells of human, 18 h, 50): 9.85% | Hemolysis percent, 100 μM (red cells of human, 18 h): 18.84%

CC(C)C[C@@H](NC(=O)[C@H](N)Cc1c[nH]c2ccccc12)C(=O)N[C@@H](C(=O)N[C@H](Cc1c[nH]c2ccccc12)C(=O)N[C@H](CO)C(=O)N[C@H](Cc1c[nH]c2ccccc12)C(=O)N[C@H](CCCNC(=N)N)C(=O)N[C@H](CCCNC(=N)N)C(=O)N[C@H](CCCNC(=N)N)C(N)=O)C(C)C [WCopW39] (H-[dW][dL][dV][dW][dS][dW][dR][dR][dR]-NH2)
Hemolysis percent, 25 μM (red cells of human, 18 h, 25): 0.09% | Hemolysis percent, 50 μM (red cells of human, 18 h, 50): 0.06% | Hemolysis percent, 100 μM (red cells of human, 18 h): 0.36%

CC[C@@H](C)[C@@H](NC(=O)[C@@H](Cc1c[nH]c2ccccc12)NC(=O)[C@@H](CC(C)C)NC(=O)[C@@H](CC(C)C)NC(=O)[C@H](N)Cc1c[nH]c2ccccc12)C(=O)N[C@H](C)C(=O)N[C@H](CC(C)C)C(=O)N[C@H](CCCNC(=N)N)C(=O)N[C@H](CCCCN)C(=O)N[C@H](CCCCN)C(N)=O [WCopW6] (H-[dW][dL][dL][dW][dI][dA][dL][dR][dK][dK]-NH2)
Hemolysis percent, 25 μM (red cells of human, 18 h, 25): 4.12% | Hemolysis percent, 50 μM (red cells of human, 18 h, 50): 7.05% | Hemolysis percent, 100 μM (red cells of human, 18 h): 18.06%

CC[C@@H](C)[C@@H](NC(=O)[C@@H](Cc1c[nH]c2ccccc12)NC(=O)[C@H](NC(=O)[C@@H](CC(C)C)NC(=O)[C@H](N)Cc1c[nH]c2ccccc12)C(C)C)C(=O)N[C@H](Cc1ccc(O)cc1)C(=O)N[C@@H](C(=O)N[C@H](CCCNC(=N)N)C(=O)N[C@H](CCCCN)C(=O)N[C@H](CCCCN)C(=O)N[C@H](CCCNC(=N)N)C(N)=O)C(C)C [WCopWVY3] (H-[dW][dL][dV][dW][dI][dY][dV][dR][dK][dK][dR]-NH2)
Hemolysis percent, 25 μM (red cells of human, 18 h, 25): 1.92% | Hemolysis percent, 50 μM (red cells of human, 18 h, 50): 5.67% | Hemolysis percent, 100 μM (red cells of human, 18 h): 7.01%

CC[C@@H](C)[C@@H](NC(=O)[C@@H](Cc1c[nH]c2ccccc12)NC(=O)[C@@H](CC(C)C)NC(=O)[C@@H](CC(C)C)NC(=O)[C@H](N)Cc1csc2ccccc12)C(=O)NCC(=O)N[C@H](CC(C)C)C(=O)N[C@H](CCCNC(=N)N)C(=O)N[C@H](CCCCN)C(=O)N[C@H](CCCCN)C(=O)N[C@H](CCCNC(=N)N)C(N)=O [WCopW16] (H-[dBta][dL][dL][dW][dI]G[dL][dR][dK][dK][dR]-NH2)
Hemolysis percent, 25 μM (red cells of human, 18 h, 25): 2.77% | Hemolysis percent, 50 μM (red cells of human, 18 h, 50): 5.57% | Hemolysis percent, 100 μM (red cells of human, 18 h): 10.59%

CC[C@@H](C)[C@@H](NC(=O)[C@@H](CC(C)C)NC(=O)[C@H](N)Cc1c[nH]c2ccccc12)C(=O)N[C@H](Cc1c[nH]c2ccccc12)C(=O)N[C@@H](C(=O)N[C@H](Cc1ccc(O)cc1)C(=O)N[C@H](CCCNC(=N)N)C(=O)N[C@H](CCCCN)C(=O)N[C@H](CCCCN)C(=O)N[C@H](CCCNC(=N)N)C(N)=O)C(C)C [WCopW27] (H-[dW][dL][dI][dW][dV][dY][dR][dK][dK][dR]-NH2)
Hemolysis percent, 25 μM (red cells of human, 18 h, 25): 1.82% | Hemolysis percent, 50 μM (red cells of human, 18 h, 50): 3.95% | Hemolysis percent, 100 μM (red cells of human, 18 h): 7.43%

CC(C)[C@@H](NC(=O)[C@H](N)Cc1c[nH]c2ccccc12)C(=O)N[C@@H](C(=O)N[C@H](Cc1c[nH]c2ccccc12)C(=O)N[C@@H](C(=O)N[C@@H](C(=O)N[C@H](Cc1c[nH]c2ccccc12)C(=O)N[C@H](CCCNC(=N)N)C(=O)N[C@H](CCCNC(=N)N)C(=O)N[C@H](CCCNC(=N)N)C(N)=O)C(C)C)C(C)C)C(C)C [WCopW42] (H-[dW][dV][dV][dW][dV][dV][dW][dR][dR][dR]-NH2)
Hemolysis percent, 25 μM (red cells of human, 18 h, 25): 7.14% | Hemolysis percent, 50 μM (red cells of human, 18 h, 50): 16.66% | Hemolysis percent, 100 μM (red cells of human, 18 h): 26.66%

CC[C@@H](C)[C@@H](NC(=O)[C@@H](Cc1c[nH]c2ccccc12)NC(=O)[C@H](NC(=O)[C@@H](CC(C)C)NC(=O)[C@H](N)Cc1c[nH]c2ccccc12)C(C)C)C(=O)N[C@H](Cc1ccc(O)cc1)C(=O)N[C@H](CCCNC(=N)N)C(=O)N[C@H](CCCCN)C(=O)N[C@H](CCCCN)C(=O)N[C@H](CCCNC(=N)N)C(N)=O [WCopWVY4] (H-[dW][dL][dV][dW][dI][dY][dR][dK][dK][dR]-NH2)
Hemolysis percent, 25 μM (red cells of human, 18 h, 25): 1.86% | Hemolysis percent, 50 μM (red cells of human, 18 h, 50): 2.57% | Hemolysis percent, 100 μM (red cells of human, 18 h): 5.57%

CC(C)[C@@H](NC(=O)[C@H](N)Cc1c[nH]c2ccccc12)C(=O)N[C@@H](C(=O)N[C@H](Cc1c[nH]c2ccccc12)C(=O)N[C@@H](C(=O)N[C@H](Cc1c[nH]c2ccccc12)C(=O)N[C@H](CCCNC(=N)N)C(=O)N[C@H](CCCNC(=N)N)C(=O)N[C@H](CCCNC(=N)N)C(N)=O)C(C)C)C(C)C [WCopW40] (H-[dW][dV][dV][dW][dV][dW][dR][dR][dR]-NH2)
Hemolysis percent, 25 μM (red cells of human, 18 h, 25): 0.45% | Hemolysis percent, 50 μM (red cells of human, 18 h, 50): 0.59% | Hemolysis percent, 100 μM (red cells of human, 18 h): 2.14%

WLLWIALRKKR-NH2 [WCopW2]
Hemolysis percent, 25 μM (red cells of human, 18 h, 25): 8.19% | Hemolysis percent, 50 μM (red cells of human, 18 h, 50): 11.43% | Hemolysis percent, 100 μM (red cells of human, 18 h): 23.10%

CC[C@@H](C)[C@@H](NC(=O)[C@@H](Cc1c[nH]c2ccccc12)NC(=O)[C@H](NC(=O)[C@@H](CC(C)C)NC(=O)[C@H](N)Cc1c[nH]c2ccccc12)C(C)C)C(=O)N[C@H](Cc1ccc(O)cc1)C(=O)N[C@H](CC(C)C)C(=O)N[C@H](CCCNC(=N)N)C(=O)N[C@H](CCCCN)C(=O)N[C@H](CCCCN)C(=O)N[C@H](CCCNC(=N)N)C(N)=O [WCopWVY] (H-[dW][dL][dV][dW][dI][dY][dL][dR][dK][dK][dR]-NH2)
Hemolysis percent, 25 μM (red cells of human, 18 h, 25): 2.47% | Hemolysis percent, 50 μM (red cells of human, 18 h, 50): 4.51% | Hemolysis percent, 100 μM (red cells of human, 18 h): 7.25%

CC[C@@H](C)[C@@H](NC(=O)[C@@H](Cc1c[nH]c2ccccc12)NC(=O)[C@H](NC(=O)[C@@H](CC(C)C)NC(=O)[C@H](N)Cc1c[nH]c2ccccc12)C(C)C)C(=O)N[C@H](Cc1c[nH]c2ccccc12)C(=O)N[C@H](CCC(N)=O)C(=O)N[C@H](CCCNC(=N)N)C(=O)N[C@H](CCCNC(=N)N)C(=O)N[C@H](CCCNC(=N)N)C(N)=O [WCopW30] (H-[dW][dL][dV][dW][dI][dW][dQ][dR][dR][dR]-NH2)
Hemolysis percent, 25 μM (red cells of human, 18 h, 25): 0.32% | Hemolysis percent, 50 μM (red cells of human, 18 h, 50): 2.74% | Hemolysis percent, 100 μM (red cells of human, 18 h): 4.92%

CC(C)C[C@@H](NC(=O)[C@H](N)Cc1c[nH]c2ccccc12)C(=O)N[C@@H](C(=O)N[C@H](Cc1c[nH]c2ccccc12)C(=O)N[C@H](CC(=O)O)C(=O)N[C@H](Cc1c[nH]c2ccccc12)C(=O)N[C@H](CCCNC(=N)N)C(=O)N[C@H](CCCNC(=N)N)C(=O)N[C@H](CCCNC(=N)N)C(N)=O)C(C)C [WCopW38] (H-[dW][dL][dV][dW][dD][dW][dR][dR][dR]-NH2)
Hemolysis percent, 50 μM: 0.06% | Hemolysis percent, 50 μM (red cells of human, 18 h, 50): 0.06 ±0.06%

CC[C@@H](C)[C@@H](NC(=O)[C@@H](Cc1c[nH]c2ccccc12)NC(=O)[C@@H](CC(C)C)NC(=O)[C@@H](CC(C)C)NC(=O)[C@H](N)Cc1c[nH]c2ccccc12)C(=O)N[C@H](C)C(=O)N[C@H](CC(C)C)C(=O)N[C@H](CCCNC(=N)N)C(=O)N[C@H](CCCCN)C(=O)N[C@H](CCCCN)C(=O)N[C@H](CCCNC(=N)N)C(N)=O [WCopW3] (H-[dW][dL][dL][dW][dI][dA][dL][dR][dK][dK][dR]-NH2)
Hemolysis percent, 25 μM (red cells of human, 18 h, 25): 3.64% | Hemolysis percent, 50 μM (red cells of human, 18 h, 50): 9.36% | Hemolysis percent, 100 μM (red cells of human, 18 h): 13.37%
